From the supplement of paper PMC10307832

Assays:
Experiment in all cases: relative viability (nuclei count vs DMSO), 5 days (fraction); higher = more cells survive
[1] = compound: CCOC(=O)CCNc1cc(N2CCc3ccccc3CC2)nc(-c2ccccn2)n1 [GSK-J4] + C[C@@H](Oc1cc(-c2cnn(C3CCNCC3)c2)cnc1N)c1c(Cl)ccc(F)c1Cl [Crizotinib] (partner 1 µM)
In short: (§1)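 Values are medians from duplicate plates. Each reflects relative viability, defined as the nuclei count of treated wells over that of vehicle wells. Lung cancer cell lines in 1536-well plates were pin-tool dosed one day after seeding with one drug alone or with a fixed anchor-drug dose plus five library-drug doses (not always all listed) in √10 steps, then fixed, stained and imaged at 4× after 5 days.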

[2] = compound: CN1CCC(CC1)OC2=CC(=C(C=C2)NC3=NC=C4C(=N3)N(C(=O)N4C)C5CCCC5)OC [AZ3146] + CC(C)C[C@H](NC(=O)[C@H](Cc1ccccc1)NC(=O)c1cnccn1)B(O)O [Bortezomib] (partner 0.002 µM)
In short: as §1

[3] = compound: CCOC(=O)CCNc1cc(N2CCc3ccccc3CC2)nc(-c2ccccn2)n1 [GSK-J4] + CC(=O)c1c(C)c2cnc(Nc3ccc(N4CCNCC4)cn3)nc2n(C2CCCC2)c1=O [Palbociclib] (partner 0.5 µM)
In short: as §1

[4] = compound: CN1CCC(CC1)OC2=CC(=C(C=C2)NC3=NC=C4C(=N3)N(C(=O)N4C)C5CCCC5)OC [AZ3146] + O=C(CCCCCCC(=O)Nc1ccccc1)NO [Vorinostat] (partner 1 µM)
In short: as §1

| Cell Line | relative viability ([1]; first compound 0.5 µM) | relative viability ([1]; first compound 1.581 µM) | relative viability ([1]; first compound 5 µM) | relative viability ([1]; first compound 15.81 µM) | relative viability ([1]; first compound 50 µM) | relative viability ([2]; first compound 0.08 µM) | relative viability ([2]; first compound 0.253 µM) | relative viability ([2]; first compound 0.8 µM) | relative viability ([2]; first compound 2.53 µM) | relative viability ([2]; first compound 8 µM) | relative viability ([3]; first compound 0.5 µM) | relative viability ([3]; first compound 1.581 µM) | relative viability ([3]; first compound 5 µM) | relative viability ([3]; first compound 15.81 µM) | relative viability ([3]; first compound 50 µM) | relative viability ([4]; first compound 0.08 µM) | relative viability ([4]; first compound 0.253 µM) | relative viability ([4]; first compound 0.8 µM) | relative viability ([4]; first compound 2.53 µM) | relative viability ([4]; first compound 8 µM) |
| --- | --- | --- | --- | --- | --- | --- | --- | --- | --- | --- | --- | --- | --- | --- | --- | --- | --- | --- | --- | --- |
| NCI-H2126 | 0.99 | 0.823 | 1 | 0.979 | 0.917 | 1.07 | 1.11 | 1.09 | 1.09 | 1.08 | 0.374 | 0.397 | 0.356 | 0.333 | 0.358 | 0.504 | 0.743 | 0.709 | 0.835 | 0.66 |
| NCI-H2228 | 0.609 | 0.345 | 0.497 | 0.535 | 0.423 | 0.904 | 1.03 | 1.04 | 1.18 | 0.953 | 0.672 | 0.765 | 0.817 | 0.784 | 0.722 | 0.589 | 0.695 | 0.874 | 0.956 | 0.674 |
| NCI-H2347 | 0.644 | 0.707 | 0.651 | 0.633 | 0.554 | 0.747 | 1.08 | 0.758 | 1.02 | 1.02 | 0.448 | 0.374 | 0.411 | 0.436 | 0.419 | 0.523 | 0.562 | 0.574 | 0.717 | 0.596 |
| NCI-H2405 | 0.847 | 0.794 |  | 0.751 | 0.664 | 1.02 | 1 | 0.944 | 0.994 | 1.11 | 0.525 | 0.458 |  | 0.522 | 0.508 | 0.799 | 0.969 | 1.04 | 1.14 | 0.927 |
| NCI-H3122 | 0.287 | 0.275 | 0.27 | 0.243 | 0.283 | 1.08 | 1 | 0.997 | 0.999 | 1.07 | 0.18 | 0.2 | 0.181 | 0.177 | 0.191 | 0.92 | 0.969 | 1.08 | 1.07 | 0.932 |
| PC-3 [JPC-3] | 0.912 | 0.882 | 0.952 | 0.926 | 0.814 | 0.806 | 0.84 | 0.83 | 0.959 | 0.859 | 0.499 | 0.511 | 0.512 | 0.497 | 0.514 | 0.554 |  | 0.803 | 0.66 | 0.713 |
| PC-14 | 0.858 | 0.896 | 0.843 | 0.842 | 0.855 | 0.872 | 0.891 | 0.846 | 0.997 | 0.721 | 0.471 | 0.624 | 0.454 | 0.518 | 0.544 | 0.538 | 0.745 | 0.546 | 0.359 | 0.0815 |
| RERF-LC-KJ | 0.709 | 0.837 | 0.721 | 0.872 | 0.768 | 1.07 | 1.15 | 1.24 | 1.04 | 0.98 | 1.07 | 0.954 | 1.13 | 1.04 | 0.728 | 0.534 | 0.657 | 0.774 | 0.756 | 0.576 |
| SK-LU-1 | 0.756 | 0.762 | 0.725 | 0.607 | 0.584 |  |  | 1.02 | 1.15 | 1.5 | 0.362 | 0.421 | 0.346 | 0.336 | 0.295 | 0.746 | 0.854 | 0.752 | 0.792 | 0.504 |
| SW 1573 | 0.701 | 0.726 | 0.832 | 0.754 | 0.608 | 0.995 | 1.03 | 1.09 | 0.869 | 0.777 | 0.38 | 0.336 | 0.347 | 0.382 | 0.237 | 0.636 | 0.767 | 0.643 | 0.723 | 0.307 |
